Values joined by “and” are separate entries in the source; they are usually repeats but may differ in a detail not shown here. Identical values can stand only once.

One test deals with hind-limb of rats. Description: Withdrawal latency to thermal stimuli (42° C. water bath) of hind-limb in rats during sensitization by capsaicin. The format is in vivo, rat. The note with it: 0.1% capsaicin solution; for Withdrawal latency time, One hour after appln.: 42° C. water bath; for Withdrawal latency time, Before appln.: baseline before application. The protocol:
1. 0.1% capsaicin solutions containing varying amount of polyoxyethylene (60) hydrogenated castor oil were prepared by dissolving 0.1 g of capsaicin and 0, 3, 9 or 18g of the surfactant in 26.4 ml of ethanol and then diluting with distilled water q.s. to make a total volume of 100 ml.
Each of 0.1% capsaicin solution thus prepared was applied to the hind-limb of rats. One hour after the application, the limb was placed in a water bath warmed at 42° C. and the length of time (in seconds) elapsed until when the rat withdrew the treated limb from the water bath was determined. […]

In a further test the test system is cornea of rats. Description: Eye-wiping reflex caused by capsaicin applied to the cornea (eye-wiping method of Jancso). The format is in vivo, rat. To be noted: for Number of wiping, Second: challenge with 0.1% capsaicin solution without surfactant 2 hours after pretreatment with 0.1% capsaicin. From the text:
2. The effect of polyoxyethylene (60) hydrogenated castor oil on the eye-wiping reflex caused by capsaicin and the desensitization to chemical stimuli was studied according to the eye-wiping method reported by Jancso N. et al., in “Direct evidence for neurogenic inflammation and its prevention by denervation and by pretreatment with capsaicin”, Br. J. Phamac. Chemother. 31: 138-151, 1967.
When one drop of 0.1% capsaicin solution was applied to the cornea of rats, the animal immediately began to wipe the cornea with front paws and continued the wiping for about 1 minute.
See, Table 2. […] See, Table 3.
4. The effect of various surfactants on the desensitization of sensory nerves by 0.1% capsaicin was evaluated using the procedure of Test 2.

The mark [1] stands for this setting: polyoxyethylene (60) hydrogenated castor oil 0%.
[2] abbreviates: polyoxyethylene (60) hydrogenated castor oil 3%.
Setting [3] is: polyoxyethylene (60) hydrogenated castor oil 9%.
Where [4] appears, read: polyoxyethylene (60) hydrogenated castor oil 18%.

On to `COc1cc(CNC(=O)CCCC/C=C/C(C)C)ccc1O` [capsaicin], for which the “Withdrawal latency time, One hour after appln.” value in the test with hind-limb of rats (setting [1]) is “remarkably shortened and 2.45 ± 0.32 sec”; in the test on hind-limb of rats (setting [2]), “slightly shortened and 20.29 ± 4.18 sec”; with hind-limb of rats (setting [3]) it was “not affected significantly and 30 ± 0 sec”; in the test with hind-limb of rats (setting [4]) it was “not affected significantly and 27.28 ± 2.35 sec”. For the same compound, the “Withdrawal latency time, Before appln.” value with hind-limb of rats (setting [1]), with hind-limb of rats (setting [2]), in the test with hind-limb of rats (setting [3]) and with hind-limb of rats (setting [4]) was 30 ± 0 s throughout. Moreover, the “Number of wiping, Second” value is “significantly reduced and 9.7 ± 1.6” with cornea of rats (surfactant 0%); “significantly reduced and 11.5 ± 0.9” in the test on cornea of rats (surfactant 3%); “significantly reduced and 13 ± 0.7” in the test with cornea of rats (surfactant 9%); “significantly reduced and 11.7 ± 0.6” with cornea of rats (surfactant 18%). In the test on cornea of rats (one drop applied to the cornea of rats), the “Duration of wiping of the cornea with front paws” value was “about 1 minute”. The “Number of wiping, First” value in the test with cornea of rats (pretreatment drop of 0.1% capsaicin solution with surfactant 0%) is 21.5 ± 1.6; with cornea of rats (pretreatment drop of 0.1% capsaicin solution with surfactant 3%), “not virtually affected and 24 ± 2.1”; with cornea of rats (pretreatment drop of 0.1% capsaicin solution with surfactant 9%), “not virtually affected and 23.5 ± 1.1”; in the test on cornea of rats (pretreatment drop of 0.1% capsaicin solution with surfactant 18%), “not virtually affected and 22 ± 1.4”.
